Conditions: 101.33 kPa, Liquid; for electrical conductivity: Alternating current cell with electrodes; for speed of sound: Sing-around technique in a fixed-path interferometer; for mass density: Vibrating tube method

CCCCn1cc[n+](C)c1.F[P-](F)(F)(F)(F)F [1-butyl-3-methylimidazolium hexafluorophosphate]
Conditions | electrical conductivity [S/m] | mass density [kg/m3] | speed of sound [m/s]
293.15 K | 0.137 | 1371.61 | 1454.9
298.15 K | 0.183 | 1367.65 | 1442.6
303.15 K | 0.224 | 1363.13 | 1430.7
308.15 K | 0.267 | 1359.04 | 1419
313.15 K | 0.314 | 1354.93 | 1407.6
318.15 K | 0.384 | 1350.83 | 1396.3
323.15 K | 0.459 | 1346.72 | 1385.2
